In US7943628B2, “Pyrimidine derivatives” (Pfizer Limited, priority 2005, dated 2011) one finds Ki and inhibition data, which are given here for 41 compounds.

In the test the target is T1, histamine H4 receptor (Homo sapiens, UniProt Q9H3N8).
T1 construct: expressed in transfected cells; host or cells: CHO cells
Nature of the test: H4 binding, method 1 ([3H]-histamine filtration binding on CHO cell membranes). The conditions noted are these: for Ki: H4 binding, method 1, Ki calculated from IC50 (Cheng-Prussoff). As for the experimental part:
Cell pellets from CHO cells expressing the histamine H4 receptor were homogenised in ice-cold 50 mM Tris-HCl/0.5 mM CaCl2 buffer containing a protease inhibitor cocktail (Roche®, United Kingdom) using a ground glass homogeniser. Homogenates were centrifuged at 48000 g for 30 min at 4° C. The membrane pellet was resuspended in fresh buffer and the centrifugation step was repeated as described above. The membrane pellet was resuspended in 50 mM Tris-HCl in the same volume as the original cell pellet. Aliquots of membrane preparations were stored at −80° C. and were used for [^3H]-Histamine binding experiments.
Cell membranes (20-35 μg/well) were incubated for 90 minutes shaking at room temperature with 3 nM [2,5-^3H]Histamine dihydrochloride (30-60 Ci/mmol) in 50 mM Tris-HCl (pH 7.4), with or without competing H4 ligands. The reaction was terminated by rapid filtration through 0.5% polyethylenimine-soaked Unifilter GF/B plates (Packard) followed by three washes with 1 ml ice-cold 50 mM Tris-HCl. Filters were dried for 45 min at 45° C. and bound radiolabel was determined using scintillation counting techniques. Non-specific binding was defined with 10 μM JNJ7777120.

What is called Ki is the dissociation constant of the complex between target and ligand, obtained from inhibition or displacement. What is called inhibition is the percentage by which the read-out fell short of the control. High values mean strong suppression, low ones little suppression.

T1 sequence (Q9H3N8 whole entry): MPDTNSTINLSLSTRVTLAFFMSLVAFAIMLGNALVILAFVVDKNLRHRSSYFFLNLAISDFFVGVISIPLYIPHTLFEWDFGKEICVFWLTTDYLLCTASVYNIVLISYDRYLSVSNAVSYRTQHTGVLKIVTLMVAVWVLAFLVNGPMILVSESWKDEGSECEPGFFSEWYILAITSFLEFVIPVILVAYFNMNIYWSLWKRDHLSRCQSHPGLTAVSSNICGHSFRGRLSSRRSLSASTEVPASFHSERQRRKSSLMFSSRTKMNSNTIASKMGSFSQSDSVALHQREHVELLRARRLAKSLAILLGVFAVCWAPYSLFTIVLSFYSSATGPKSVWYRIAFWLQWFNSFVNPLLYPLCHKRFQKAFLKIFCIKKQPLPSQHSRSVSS

Consider `CC(C)Nc1cc(N2CC[C@@H]3NCC[C@@H]3C2)nc(N)n1` (racemic) [Example 137, N^4-Isopropyl-6-[(3aR*,7aS*)-octahydro-5H-pyrrolo[3,2-c]pyridin-5-yl]pyrimidine-2,4-diamine], for which the Ki is 8.25 nM.

Regarding `CC(C)(C)CNc1cc(N2CC[C@@H]3NCC[C@@H]3C2)nc(N)n1` (racemic) [Example 162, N^4-(2,2-Dimethylpropyl)-6-[(3aR*,7aS*)-octahydro-5H-pyrrolo[3,2-c]pyridin-5-yl]pyrimidine-2,4-diamine], the Ki was 2.91 nM.

Regarding `Nc1nc(NCC2CC2)cc(N2CC[C@@H]3NCC[C@@H]3C2)n1` (racemic) [Example 188, N^4-(Cyclopropylmethyl)-6-[(3aR*,7aS*)-octahydro-5H-pyrrolo[3,2-c]pyridin-5-yl]pyrimidine-2,4-diamine], the Ki is 25.5 nM.

`CCNc1cc(N2CC[C@@H]3NCC[C@@H]3C2)nc(N)n1` (racemic) [Example 193, N^4-Ethyl-6-[(3aR*,7aS*)-octahydro-5H-pyrrolo[3,2-c]pyridin-5-yl]pyrimidine-2,4-diamine]: the Ki is 31 nM.

Turning to `CNc1cc(N2CC[C@@H]3NCC[C@@H]3C2)nc(N)n1` (racemic) [Example 200, N^4Methyl-6-[(3aR*,7aS*)-octahydro-5H-pyrrolo[3,2-c]pyridin-5-yl]pyrimidine-2,4-diamine], the Ki is 34 nM.

On to `CC(C)(C)Nc1cc(N2C[C@@H]3CCCN[C@@H]3C2)nc(N)n1` (relative stereo) [Example 150, N^4-(tert-Butyl)-6-[(4aS*,7aS*)-octahydro-6H-pyrrolo[3,4-b]pyridin-6-yl]pyrimidine-2,4-diamine], for which the inhibitory constant (Ki) was 11.8 nM.

With `N[C@@]12C[C@@H]1CN(c1cc(NCC3CC3)ncn1)C2` (relative stereo) [Example 304, (1S*,5R*)-3-{6-[(Cyclopropylmethyl)amino]pyrimidin-4-yl}-3-azabicyclo[3.1.0]hexan-1-amine], the inhibition at 10 µM (1.5 h) was 19%.

On to `CN(C)[C@H]1CCN(c2cc(NCCC(C)(C)C)ncn2)C1` [Example 2, 6-[(3S)-3-(Dimethylamino)pyrrolidin-1-yl]-N-(3,3-dimethylbutyl)pyrimidin-4-amine], for which the Ki is 485 nM.

Consider `CN1C[C@@H]2CN(c3cc(NCCC(C)(C)C)ncn3)C[C@@H]2C1` [Example 3, N-(3,3-Dimethylbutyl)-6-[(3aR*,6aS*)-5-methylhexahydropyrrolo[3,4-c]pyrrol-2(1H)-yl]pyrimidin-4-amine], for which the Ki is 220 nM.

Take `CN(C)C1CN(c2cc(NCCC(C)(C)C)ncn2)C1` [Example 4, 6-[3-(Dimethylamino)azetidin-1-yl]-N-(3,3-dimethylbutyl)pyrimidin-4-amine]: the Ki was 374 nM.

`CN1C[C@@H]2C[C@H]1CN2c1cc(NCCC(C)(C)C)ncn1` [Example 5, N-(3,3-Dimethylbutyl)-6-[(1S,4S)-5-methyl-2,5-diazabicyclo[2.2.1]hept-2-yl]pyrimidin-4-amine]: the Ki is 263 nM.

As for `CC(C)(C)CCNc1cc(N[C@H]2CCNC2)ncn1` [Example 6, N-(3,3-Dimethylbutyl)-N′-[(3S)-pyrrolidin-3-yl]pyrimidine-4,6-diamine], the Ki is 502 nM.

For the compound `CC(C)(C)CCNc1cc(N[C@@H]2CCNC2)ncn1` [Example 7, N-(3.3-Dimethylbutyl)-N′-[(3R)-pyrrolidin-3-yl]pyrimidine-4,6-diamine], the Ki is 939 nM.

Consider `CN1CC[C@@H](Nc2cc(NCCC(C)(C)C)ncn2)C1` [Example 8, N-(3,3-Dimethylbutyl)-N′-[(3R)-1-methylpyrrolidin-3-yl]pyrimidine-4,6-diamine], for which the Ki is 593 nM.

`CCNc1cc(N2CC(NC)C2)nc(N)n1` [Example 70, N^4-Ethyl-6-[3-(methylamino)azetidin-1-yl]pyrimidine-2,4-diamine]: the Ki is 3.79 nM.

As to `CCCNc1cc(N2CC(NC)C2)nc(N)n1` [Example 73, 6-[3-(Methylamino)azetidin-1-yl]-N^4-propylpyrimidine-2,4-diamine], the Ki was 0.88 nM.

As for `CNC1CN(c2cc(NC3CCC3)nc(N)n2)C1` [Example 75, N^4-Cyclobutyl-6-[3-(methylamino)azetidin-1-yl]pyrimidine-2,4-diamine], the Ki was 1.07 nM.

On to `CC(C)CCNc1cc(N2CCN(C)CC2)ncn1` [Example 100, N-(3-Methylbutyl)-6-(4-methylpiperazin-1-yl)pyrimidin-4-amine], for which the Ki is 40.2 nM.

Regarding `CC(C)(C)CCNc1cc(N[C@H]2CCNC2)nc(N)n1` [Example 101, N^4-(3,3-Dimethylbutyl)-N^6-[(3S)-pyrrolidin-3-yl]pyrimidine-2,4,6-triamine], the Ki is 463 nM.

In the case of `CN1CCN(c2cc(NCCC(C)(C)C)nc(N)n2)CC1` [Example 102, N^4-(3,3-Dimethylbutyl)-6-(4-methylpiperazin-1-yl)pyrimidine-2,4-diamine], the Ki was 57.3 nM.

As for `CCNc1cc(N2CCN(C)CC2)ncn1` [Example 103, N-Ethyl-6-(4-methylpiperazin-1-yl)pyrimidin-4-amine], the Ki is 87.9 nM.

With `CC(C)Nc1cc(N2CCN(C)CC2)ncn1` [Example 104, N-Isopropyl-6-(4-methylpiperazin-1-yl)pyrimidin-4-amine], the inhibition constant Ki is 118 nM.

`CC(C)CNc1cc(N2CCN(C)CC2)ncn1` [Example 105, N-Isobutyl-6-(4-methylpiperazin-1-yl)pyrimidin-4-amine]: the Ki was 68.8 nM.

Regarding `CN1CCN(c2cc(NCC3CC3)ncn2)CC1` [Example 106, N-(Cyclopropylmethyl)-6-(4-methylpiperazin-1-yl)pyrimidin-4-amine], the Ki is 66.1 nM.

Turning to `CC(C)CCNc1cc(N[C@H]2CCNC2)ncn1` [Example 107], the Ki is 271 nM.

Turning to `CCC(C)CNc1cc(N2CC(NC)C2)nc(N)n1` (centres unmarked) [Example 128, 6-[3-(Methylamino)azetidin-1-yl]-N^4-(2-methylbutyl)pyrimidine-2,4-diamine], the inhibition constant (Ki) is 0.805 nM.

For the compound `CNC1CN(c2cc(N[C@@H](C)C(C)C)nc(N)n2)C1` [Example 129, N^4-[(1S)-1,2-Dimethylpropyl]-6-[3-(methylamino)azetidin-1-yl]pyrimidine-2,4-diamine], the Ki was 3.78 nM.

For `CNC1CN(c2cc(NCc3cc(F)ccc3F)nc(N)n2)C1` [Example 130, N^4-(2,5-Difluorobenzyl)-6-[3-(methylamino)azetidin-1-yl]pyrimidine-2,4-diamine], the Ki is 9.69 nM.

For `CNC1CN(c2cc(NCc3cccc(F)c3F)nc(N)n2)C1` [Example 131, N^4-(2,3-Difluorobenzyl)-6-[3-(methylamino)azetidin-1-yl]pyrimidine-2,4-diamine], the Ki was 17.8 nM.

`CCCCNc1cc(N2CC(NC)C2)nc(N)n1` [Example 132, N^4-Butyl-6-[3-(methylamino)azetidin-1-yl]pyrimidine-2,4-diamine]: the Ki is 0.791 nM.

Regarding `CC(C)CNc1cc(N2CCCNCC2)nc(N)n1` [Example 133, 6-(1,4-Diazepan-1-yl)-N^4-isobutylpyrimidine-2,4-diamine], the Ki was 0.653 nM.

For `CN[C@@H]1CCN(c2cc(NC3CC3C)nc(N)n2)C1` (stereo partly drawn) [Example 134, 6-[(3R)-3-(Methylamino)pyrrolidin-1-yl]-N^4-(2-methylcyclopropyl)pyrimidine-2,4-diamine], the Ki was 4.15 nM.

Consider `CC(C)CNc1cc(N2CCCN(C)CC2)nc(N)n1` [Example 135, N^4-Isobutyl-6-(4-methyl-1,4-diazepan-1-yl)pyrimidine-2,4-diamine], for which the Ki is 1.13 nM.

For the compound `Nc1nc(NCC2CC2)cc(N2CC(N3CCCC3)C2)n1` [Example 136, N^4-(Cyclopropylmethyl)-6-(3-pyrrolidin-1-ylazetidin-1-yl)pyrimidine-2,4-diamine], the Ki was 7.21 nM.

With `CN[C@@H]1CCN(c2cc(NC34CC(C3)C4)nc(N)n2)C1` [Example 138, N^4-Bicyclo[1.1.1]pent-1-yl-6-[(3R)-3-(methylamino)pyrrolidin-1-yl]pyrimidine-2,4-diamine], the Ki is 5.8 nM.

In the case of `CCNc1cc(N2CCC(N)CC2)nc(N)n1` [Example 139, 6-(4-Aminopiperidin-1-yl)-N^4-ethylpyrimidine-2,4-diamine], the Ki is 12.1 nM.

Consider `CCCNc1cc(N2CC(C)(NC)C2)nc(N)n1` [Example 140, 6-[3-Methyl-3-(methylamino)azetidin-1-yl]-N^4-propylpyrimidine-2,4-diamine], for which the Ki was 12.1 nM.

As to `CC(C)(C)CNc1cc(N2CC(N3CCCC3)C2)nc(N)n1` [Example 142, N^4-(2,2-Dimethylpropyl)-6-(3-pyrrolidin-1-ylazetidin-1-yl)pyrimidine-2,4-diamine], the Ki was 3.04 nM.

`CNCCNc1cc(NCC(C)(C)C)nc(N)n1` [Example 143, N^4-(2,2-Dimethylpropyl)-N^6-[2-(methylamino)ethyl]pyrimidine-2,4,6-triamine]: the Ki is 72.4 nM.

For the compound `CN(C)CCNc1cc(NCC(C)(C)C)nc(N)n1` [Example 144, N^4-[2-(Dimethylamino)ethyl]-N^6-(2,2-dimethylpropyl)pyrimidine-2,4,6-triamine], the Ki was 16.8 nM.

Take `CC(C)NC1CN(c2cc(NCC(C)(C)C)nc(N)n2)C1` [Example 145, N^4-(2,2-Dimethylpropyl)-6-[3-(isopropylamino)azetidin-1-yl]pyrimidine-2,4-diamine]: the Ki was 14.3 nM.
